The values below come from patent EP4692071A1, “PHOTOCHROMIC COMPOUND, NAPHTHOL DERIVATIVE, CURABLE COMPOSITION, OPTICAL ARTICLE, LENS, AND EYEGLASS” (TOKUYAMA CORPORATION, priority 2023, dated 2024).

Holding throughout (format): physicochemical
Data set [1] is described as follows: Maximum absorption wavelength (λmax) after color development, spectrophotometer MCPD3000. The settings on record: for Maximum absorption wavelength: after color development. On the procedure: (§1) • [1] Maximum Absorption Wavelength (λmax): The maximum absorption wavelength after color development, measured using a spectrophotometer (instantaneous multichannel photodetector MCPD3000) manufactured by Otsuka Electronics Co., Ltd. was used as an indicator for the color tone during the color development. • [2] 23°C Color Optical Density (A23): A difference between an absorbancy measured after light irradiation at 23°C for 240 seconds {ε(240)} and an absorbancy without light irradiation ε(0) at the maximum absorption wavelength was used as an indicator for the color optical density. […] 35°C Color Optical Density (A35): A difference between an absorbancy measured after light irradiation at 35°C for 240 seconds {ε(240)} and an absorbancy without light irradiation ε(0) at the first and second absorption wavelengths was used as an indicator for the color optical density. […] 23°C color fading half-life [τ1/2 (sec.)]: A time required for the absorbancy of the sample at the maximum absorption wavelength to decrease to 1/2 of {ε(240)-ε(0)} when the light irradiation is terminated after the light irradiation at 23°C for 240 seconds, was used as an indicator for the color fading speed. The shorter this time, the higher the color fading speed. • [6] Residual rate (A90/A0×100): The obtained photochromic plastic lens was subjected to accelerated deterioration using a xenon weather meter X25 manufactured by Suga Test Instruments Co., Ltd. for 90 hours. Subsequently, the color optical density was evaluated before and after the test, then a color optical density before the test (A0) and a color optical density after the test (A90) were measured, and a ratio (A90/A0) was defined as a residual rate. The residual rate was used as an indicator for a color developing durability. The higher the residual rate, the higher the color developing durability.

A short description of data set [2]: 23°C color optical density (A23): absorbancy difference ε(240)-ε(0) after 240 s light irradiation at 23°C. Conditions: 240 s irradiation; for 23°C color optical density (-): comparative compounds. On the procedure: as §1
Data set [3] in a line: 35°C color optical density (A35): absorbancy difference ε(240)-ε(0) after 240 s light irradiation at 35°C. The settings on record: 240 s irradiation; for 35°C color optical density (-): comparative compounds. On the procedure:
as §1

The nature of data set [4]: High-temperature color development rate (A35/A23×100), temperature dependency. The settings on record: for Temperature change rate (%): comparative compounds, corresponds to A35/A23×100. The protocol:
as §1

Data set [5] can be described thus: Residual rate (A90/A0×100) after 90 h accelerated deterioration in xenon weather meter X25, color developing durability. The settings on record: for Residual rate (%): xenon weather meter 90 hours; for Residual rate: after 90 h accelerated deterioration. On the procedure: as §1
The mark [6] stands for this setting: binder sheet (binder method), measured at 451 nm absorption maximum.
Where [7] appears, read: binder sheet (binder method), measured at 565 nm absorption maximum.
Where [8] appears, read: photochromic laminate by coating method, at 451 nm absorption maximum.
[9] abbreviates: photochromic laminate by coating method, at 566 nm absorption maximum.
[10] abbreviates: photochromic laminate by coating method.
The mark [11] stands for this setting: binder sheet (binder method), urethaneurea resin photochromic layer between polycarbonate sheets, 0.25 mmol per 100 parts by mass resin.
Where [12] appears, read: photochromic laminate by coating method, 40 µm photochromic layer on thiourethane lens, 0.25 mmol compound per 100 g monomers.
Where [13] appears, read: cured product by kneading method, 1 mm.
[14] abbreviates: photochromic laminate by coating method, at the maximum absorption wavelength.
The mark [15] stands for this setting: photochromic laminate prepared by coating method.
[16] abbreviates: photochromic laminate by coating method, absorption band at 469 nm.
Where [17] appears, read: photochromic laminate by coating method, absorption band at 570 nm.

With `CCC1(CC)CCC2(CC1)c1ccccc1-c1c2c2c(c3cc(OC)c(N(C)c4ccc(C(F)(F)F)cc4)cc13)OC(c1ccc(C)cc1)(c1ccc(OC)cc1)C=C2` (centres unmarked) [Example 9 Formula (57)], the “Maximum absorption wavelength (nm)” value in data set [1] (binder sheet (binder method), urethaneurea resin photochromic layer between polycarbonate sheets, 0.25 mmol per 100 parts by mass resin, measured at 451 nm absorption maximum) was 451 nm; in data set [1] (binder sheet (binder method), urethaneurea resin photochromic layer between polycarbonate sheets, 0.25 mmol per 100 parts by mass resin, measured at 565 nm absorption maximum), 565 nm; in data set [1] (photochromic laminate by coating method, 40 µm photochromic layer on thiourethane lens, 0.25 mmol compound per 100 g monomers, at 451 nm absorption maximum), 451 nm; in data set [1] (photochromic laminate by coating method, 40 µm photochromic layer on thiourethane lens, 0.25 mmol compound per 100 g monomers, at 566 nm absorption maximum), 566 nm. Besides, the “A23 (-)” value in data set [2] (setting [6]) was 0.75 -; in data set [2] (setting [7]), 0.88 -; in data set [2] (photochromic laminate by coating method, at the maximum absorption wavelength, at 451 nm absorption maximum), 0.73 -; in data set [2] (photochromic laminate by coating method, at the maximum absorption wavelength, at 566 nm absorption maximum), 0.86 -. Moreover, the “A35 (-)” value in data set [3] (setting [6]) is reported as 0.49 -; in data set [3] (setting [7]) it was 0.56 -; in data set [3] (setting [8]), 0.47 -; in data set [3] (setting [9]) it was 0.55 -. Also, the figures for the “A35/A23 *100 (%)” value in data set [4] (setting [6]), in data set [4] (setting [7]) and in data set [4] (setting [10]) were 66%, 65% and 64%, respectively. Also, the “Residual rate (%)” value in data set [5] (setting [6]) was determined as 95%; in data set [5] (setting [7]) it was 96%; in data set [5] (setting [8]), 83%; in data set [5] (setting [9]) it was 84%.
Regarding `COc1ccc(C2(c3ccc(OC)cc3)C=Cc3c4c(c5cc(N(C)c6ccccc6)c(OC)cc5c3O2)-c2ccccc2C4(C)C)cc1` [Example 1 Formula (28)], the “Maximum absorption wavelength (nm)” value is reported as 501 nm in data set [1] (setting [11]); 505 nm in data set [1] (photochromic cured product by kneading method, 1 mm thick thiourethane, 0.106 mmol per 100 g monomers); 501 nm in data set [1] (setting [12]). The “A23 (-)” value in data set [2] (binder sheet (binder method)) is 1.17 -; in data set [2] (setting [13]) it was 1.19 -; in data set [2] (setting [14]), 1.15 -. In addition, the “A35 (-)” value in data set [3] (binder sheet (binder method)) is reported as 0.80 -; in data set [3] (setting [13]), 0.83 -; in data set [3] (setting [10]), 0.79 -. Besides, the “A35/A23 *100 (%)” value in data set [4] (binder sheet (binder method)) is on record as 69%; in data set [4] (setting [13]), 70%; in data set [4] (setting [10]), 69%. For the same compound, the “Residual rate (%)” value in data set [5] (binder sheet (binder method)) came to 95%; in data set [5] (setting [13]), 89%; in data set [5] (setting [10]), 83%.
Take `COc1ccc(C2(c3ccc(OC)cc3)C=Cc3c4c(c5cc(N6CCCCC6)c(OC)cc5c3O2)-c2ccccc2C4(C)C)cc1` [Formula (E), reference compound]: the “Maximum absorption wavelength (nm)” value in data set [1] (setting [11]) and in data set [1] (setting [12]) was 481 nm throughout. Also, the Maximum absorption wavelength in data set [1] (binder sheet (binder method)) and in data set [1] (setting [15]) was 481 nm throughout. In addition, the “A23 (-)” value in data set [2] (binder sheet (binder method)) was 1.85 -. Also, in data set [2] (setting [10]), the “23°C color optical density (-)” value is listed as 1.81 -. Moreover, the “A35 (-)” value in data set [3] (binder sheet (binder method)) is 1.30 -. The “35°C color optical density (-)” value in data set [3] (setting [10]) is on record as 1.28 -. Moreover, the “A35/A23 *100” value is recorded as 70% in data set [4] (binder sheet (binder method)) and 71% in data set [4] (setting [15]). Further, the “A35/A23 *100 (%)” value in data set [4] (binder sheet (binder method)) came out at 70%. For the same compound, in data set [4] (setting [10]), the “Temperature change rate (%)” value worked out at 71%. Besides, the values for the Residual rate in data set [5] (binder sheet (binder method)) and in data set [5] (setting [15]) were 68% and 51%, respectively. The figures for the “Residual rate (%)” value in data set [5] (binder sheet (binder method)) and in data set [5] (setting [10]) were 68% and 51%, respectively.
As to `COc1ccc(C2(c3ccc(N4CCOCC4)cc3)C=Cc3c4c(c5cc(N6CCOc7ccccc76)c(C)cc5c3O2)-c2ccc(OC)cc2C4(CCCCF)CCCCF)cc1` (centres unmarked) [Example 47 Formula (102)], the “Maximum absorption wavelength (nm)” value in data set [1] (setting [11]) and in data set [1] (setting [12]) was 521 nm in each case. Besides, the “A23 (-)” value in data set [2] (binder sheet (binder method)) is recorded as 1.27 -; in data set [2] (setting [14]) it was 1.25 -. Moreover, the “A35 (-)” value is on record as 0.84 - in data set [3] (binder sheet (binder method)) and 0.83 - in data set [3] (setting [10]). Moreover, the “A35/A23 *100 (%)” value in data set [4] (binder sheet (binder method)) and in data set [4] (setting [10]) was 66% in each case. For the same compound, the “Residual rate (%)” value stood at 88% in data set [5] (binder sheet (binder method)) and 73% in data set [5] (setting [10]).
Consider `COc1ccc(C2(c3ccc(OC)cc3)C=Cc3c4c(c5cc(Sc6c(C)cccc6C)c(OC)cc5c3O2)-c2ccccc2C4(C)C)cc1` [Formula (C), reference compound], for which the “Maximum absorption wavelength (nm)” value came out at 469 nm in data set [1] (photochromic laminate by coating method, 40 µm photochromic layer on thiourethane lens, 0.25 mmol compound per 100 g monomers, absorption band at 469 nm) and 570 nm in data set [1] (photochromic laminate by coating method, 40 µm photochromic layer on thiourethane lens, 0.25 mmol compound per 100 g monomers, absorption band at 570 nm). Besides, the results for the “23°C color optical density (-)” value in data set [2] (setting [16]) and in data set [2] (setting [17]) were 1.20 - and 0.77 -, respectively. The “35°C color optical density (-)” value in data set [3] (setting [16]) was 0.78 -; in data set [3] (setting [17]), 0.50 -. In data set [4] (setting [10]), the “Temperature change rate (%)” value is 65%. Also, the “Residual rate (%)” value in data set [5] (setting [10]) stood at 73%.
For `CCCC1(CCC)c2ccccc2-c2c1c1c(c3cc(OC)c(N(c4ccccc4)c4ccc(C)cc4)cc23)OC(c2ccc(OC)cc2)(c2ccc(OC)cc2)C=C1` [Example 13 Formula (68)], the “Maximum absorption wavelength (nm)” value in data set [1] (setting [11]) and in data set [1] (setting [12]) was 512 nm each time. For the same compound, the A23 (-) is 1.6 in data set [2] (binder sheet (binder method)) and 1.57 - in data set [2] (setting [14]). Further, the “A35 (-)” value in data set [3] (binder sheet (binder method)) is listed as 1.09 -; in data set [3] (setting [10]), 1.08 -. Also, the “A35/A23 *100 (%)” value is listed as 68% in data set [4] (binder sheet (binder method)) and 69% in data set [4] (setting [10]). Moreover, the “Residual rate (%)” value in data set [5] (binder sheet (binder method)) is given as 96%; in data set [5] (setting [10]) it was 83%.
`CCCCCCC1(CCCCCC)c2cc(Oc3ccccc3)ccc2-c2c1c1c(c3cc(OC)c(N(c4ccccc4)c4ccc(C)cc4)cc23)OC(c2ccc(OC)cc2)(c2ccc(OCCCC)cc2)C=C1` (centres unmarked) [Example 52 Formula (119)]: the “Maximum absorption wavelength (nm)” value in data set [1] (setting [12]) came to 518 nm. In addition, the “A23 (-)” value in data set [2] (setting [14]) was 1.82 -. Also, the “A35 (-)” value in data set [3] (setting [10]) is given as 1.34 -. Further, in data set [4] (setting [10]), the “A35/A23 *100 (%)” value came to 74%. For the same compound, the “Residual rate (%)” value in data set [5] (setting [10]) is listed as 79%.
